One block for each compound: values may come before it.
Columns and labels:
[1] = Alkali metal dependent formation of 1,5-cz-Lig and 1,4-cz-Lig isomers from Lig at pH 10.2 (Chart 14); assay type: physicochemical; details: B: 1 day at 80° C., Borate/(M^I)2CO3 buffer pH 10.2
[2] = Dissociation of chelates in aq. 6.0M HCl at 80° C. (acid decomplexation kinetic inertness) (Chart 17); assay type: physicochemical
[3] = Formation of 1,5-cz-[M(Lig)] from Lig and M^III ions (metal dependent click-zip) (Charts 4, 5); assay type: physicochemical; details: MOPS/NaOH buffer pH 7.0, TD728, TD827 in 50% i-PrOH; for conversion to 1,5-cz-[M(Lig)], Y^III: TD714 sum of two diastereoisomers
[4] = Formation of 1,5-cz-[Ln(Lig)] from Lig and Ln^III ions (metal dependent click-zip), MOPS/NaOH buffer pH 7.0, analytical HPLC (Charts 1, 2); details: MOPS/NaOH buffer pH 7.0
[5] = visible analyte free precipitate

conversion to 1,4-cz-Lig isomer, Cs^I [1]: 20%
conversion to 1,4-cz-Lig isomer, K^I [1]: 20%
conversion to 1,4-cz-Lig isomer, Na^I [1]: 10%
conversion to 1,4-cz-Lig isomer, Rb^I [1]: 20%
conversion to 1,5-cz-Lig isomer, Cs^I [1]: 13%
conversion to 1,5-cz-Lig isomer, K^I [1]: 14%
conversion to 1,5-cz-Lig isomer, Na^I [1]: 75%
conversion to 1,5-cz-Lig isomer, Rb^I [1]: 14%
conversion to 1,4-cz-Lig isomer, Li^I [1, 5]: 14%
conversion to 1,5-cz-Lig isomer, Li^I [1, 5]: 24%
SMILES: C#Cc1cccc(CN2CCNCCN(Cc3cccc(CN=[N+]=[N-])n3)CCN(CC(=O)O)CC2)n1 [TD703]

fraction of intact chelate ([2]; 1 month): 95%
fraction of intact chelate ([2]; 1 week): 98%
fraction of intact chelate ([2]; 1 hour): 100%
fraction of intact chelate ([2]; 1 day): 100%
SMILES: O=C1CN2CCN3CCN(CCN(CC2)Cc2cccc(n2)-c2cnnn2Cc2cccc(n2)C3)CP(=O)(O)[O][Lu][O]1 [TD734]

fraction of intact chelate ([2]; 1 month): 98%
fraction of intact chelate ([2]; 1 week): 99%
fraction of intact chelate ([2]; 1 hour): 100%
fraction of intact chelate ([2]; 1 day): 100%
SMILES: NCc1nnn2c1-c1cccc(n1)C[N@]1CC[N@]3CC[N@@](CC[N@@](CC1)CC(=O)[O][Lu][O]C(=O)C3)Cc1cc(-c3ccccc3)cc(n1)C2 [TD735]

fraction of intact chelate ([2]; 1 month): 97%
fraction of intact chelate ([2]; 1 week): 100%
fraction of intact chelate ([2]; 1 hour): 100%
fraction of intact chelate ([2]; 1 day): 100%
SMILES: O=C1C[N@@]2CC[N@]3CC[N@@](CC[N@](CC2)Cc2cccc(n2)-c2cnnn2Cc2cc(-c4ccc(C(=O)O)cc4)cc(n2)C3)CC(=O)[O][Lu][O]1 [TD748]

conversion to 1,5-cz-[M(Lig)], Sc^III ([3]; 1 week at 80° C.): 16%
conversion to 1,5-cz-[M(Lig)], Y^III ([3]; 1 week at 80° C.): 22%
conversion to 1,5-cz-[M(Lig)], Sc^III ([3]; 1 hour at 80° C.): 0%
conversion to 1,5-cz-[M(Lig)], Y^III ([3]; 1 hour at 80° C.): 3%
conversion to 1,5-cz-[Ln(Lig)], Ce^III ([4]; after 1 week at 80° C.): 0%
conversion to 1,5-cz-[Ln(Lig)], Ce^III ([4]; after 1 hour at 80° C.): 0%
conversion to 1,5-cz-[Ln(Lig)], Dy^III ([4]; after 1 week at 80° C.): 17%
conversion to 1,5-cz-[Ln(Lig)], Dy^III ([4]; after 1 hour at 80° C.): 2%
conversion to 1,5-cz-[Ln(Lig)], Er^III ([4]; after 1 week at 80° C.): 39%
conversion to 1,5-cz-[Ln(Lig)], Er^III ([4]; after 1 hour at 80° C.): 6%
conversion to 1,5-cz-[Ln(Lig)], Eu^III ([4]; after 1 week at 80° C.): 5%
conversion to 1,5-cz-[Ln(Lig)], Eu^III ([4]; after 1 hour at 80° C.): 1%
conversion to 1,5-cz-[Ln(Lig)], Gd^III ([4]; after 1 week at 80° C.): 5%
conversion to 1,5-cz-[Ln(Lig)], Gd^III ([4]; after 1 hour at 80° C.): 1%
conversion to 1,5-cz-[Ln(Lig)], Ho^III ([4]; after 1 week at 80° C.): 23%
conversion to 1,5-cz-[Ln(Lig)], Ho^III ([4]; after 1 hour at 80° C.): 4%
conversion to 1,5-cz-[Ln(Lig)], La^III ([4]; after 1 week at 80° C.): 0%
conversion to 1,5-cz-[Ln(Lig)], La^III ([4]; after 1 hour at 80° C.): 0%
conversion to 1,5-cz-[Ln(Lig)], Lu^III ([4]; after 1 week at 80° C.): 83%
conversion to 1,5-cz-[Ln(Lig)], Lu^III ([4]; after 1 hour at 80° C.): 18%
conversion to 1,5-cz-[Ln(Lig)], Nd^III ([4]; after 1 week at 80° C.): 1%
conversion to 1,5-cz-[Ln(Lig)], Nd^III ([4]; after 1 hour at 80° C.): 0%
conversion to 1,5-cz-[Ln(Lig)], Pr^III ([4]; after 1 week at 80° C.): 0%
conversion to 1,5-cz-[Ln(Lig)], Pr^III ([4]; after 1 hour at 80° C.): 0%
conversion to 1,5-cz-[Ln(Lig)], Sm^III ([4]; after 1 week at 80° C.): 4%
conversion to 1,5-cz-[Ln(Lig)], Sm^III ([4]; after 1 hour at 80° C.): 1%
conversion to 1,5-cz-[Ln(Lig)], Tb^III ([4]; after 1 week at 80° C.): 10%
conversion to 1,5-cz-[Ln(Lig)], Tb^III ([4]; after 1 hour at 80° C.): 2%
conversion to 1,5-cz-[Ln(Lig)], Tm^III ([4]; after 1 week at 80° C.): 62%
conversion to 1,5-cz-[Ln(Lig)], Tm^III ([4]; after 1 hour at 80° C.): 11%
conversion to 1,5-cz-[Ln(Lig)], Yb^III ([4]; after 1 week at 80° C.): 76%
conversion to 1,5-cz-[Ln(Lig)], Yb^III ([4]; after 1 hour at 80° C.): 15%
SMILES: [N-]=[N+]=NCc1cccc(CN2CCN(CC(=O)O)CCN(Cc3cccc(C#CI)n3)CCN(CC(=O)O)CC2)n1 [TD1204]
